Assay results published in patent US9393250B2, “Phthalocyanine compounds useful as RecA inhibitors and methods of using same” (University of Saskatchewan, priority 2012, dated 2016).
Counter-ions that a name gives are not always drawn.

What was measured:
[1] = tested on: SOS response (E. coli strain SS996); assay: SOS induction, GFP regulated by the sulA SOS promoter, flow cytometry; type: cell-based, Escherichia coli; conditions: KAN 43 μM, CAM 46 μM, TET 21 μM, SPECT 808 μM; three hours
Description: To confirm that the bactericidal antibiotic potentiating activity of 4,4-Fe-PcTs was correlated with reduced SOS induction, SOS induction in the E. coli strain SS996 was monitored. This strain contains a green fluorescent protein (GFP) regulated by the sulA SOS promoter.
SS996 cultures were grown to an optical density at 600 nm (OD600) of 0.3. For cultures treated with 4,4-Fe-PcTs, the 4,4-Fe-PcTs was added to give a concentration of 25 μM and the culture was incubated for three hours at 37° C. Antibiotics were then added to yield concentrations of 2.5 μM (CFX), 40 μM (AMP), 43 μM (KAN), 21 μM (TET), 46 μM (CAM), or 808 μM (SPECT). Samples (˜10^6 cells) were taken immediately before the addition of antibiotics (time zero) and every hour for three hours. Samples were washed once in PBS, and resuspended in PBS prior to analysis by flow cytometry. GFP expression was monitored using flow cytometer (Beckman Coulter, Inc.) with a 488 nm argon laser and a 515-545 nm emission. Flow cytometry data were analyzed using Flowjo (Tree Star, Inc.).

[2] = molecular target: DltA (Bacillus cereus, UniProt Q81G39); assay: DltA control for specificity of ATPase inhibition; type: biochemical; conditions: DltA assayed in the presence of 3,4-Cu-PcTs
Description: DltA catalyzes the breakdown of ATP into AMP and pyrophosphate, which is further broken down by yeast pyrophosphatase into phosphate for quantification. Results are the average of two independent experiments where the deviation was less than 10%.

[3] = tested on: E. coli strain ATCC25922; assay: Antibiotic sensitivity assay (CFUs/ml), E. coli; type: cell-based, Escherichia coli; conditions: for decrease in CFUs relative to ciprofloxacin treatment alone: compound 25 μM + ciprofloxacin 40 nM
Description: (§1) Bacterial cultures were diluted to 10^5 cells/mL in LB broth (ATCC25922) or MH broth (ATCC27853, ATCC29212, ATCC29213). Antibiotics and/or phthalocyanines were added at indicated concentrations and the culture was incubated at 37° C. Samples were collected at 0, 24, 48, and 72 hours and plated on LB agar (ATCC25922) or tryptic soy blood agar (ATCC27853, ATCC29212, ATCC29213) to determine CFUs/ml.
The ability of 4,4-Fe-PcTs and 3,4-Cu-PcTs to potentiate the activity of ciprofloxacin (abbreviated “CFX”) was tested. Ciprofloxacin inhibits DNA gyrase in bacteria, causing accumulation of double-stranded DNA breaks (DSBs) and inducing the SOS response. The inventors characterized the ability of 4,4-Fe-PcTs and 3,4-Cu-PcTs to potentiate the activity of ciprofloxacin in the pathogenic E. coli strain ATCC25922, which was used previously by Cirz et al. to evaluate the role of SOS response proteins in antibiotic resistance.

[4] = molecular target: T1, EcRecA (Escherichia coli, UniProt P0A7G6); conditions: gel shift; 0, 10, 100 μM
Description: EcRecA (4 μM), a 1.0-kb double-stranded DNA (dsDNA) PCR product (12 μM in base pairs), and indicated concentrations of 4,4-Fe-PcTs or 3,4-Cu-PcTs were incubated in binding buffer (5 mM MgAc2, 50 mM Tris-Hepes at pH 7.6) for 10 minutes at 37° C. EcRecA bound (slower migrating) and unbound dsDNA were resolved using a 1.0% agarose gel. The gel was stained with ethidium bromide and the fluorescence emission in the gel was recorded using a Kodak GelLogic 200 system.

[5] = molecular target: T1, EcRecA; conditions: in presence of ATPγS
Description: EcRecA (5 μM) was incubated with indicated concentrations of 4,4-Fe-PcTs or 3,4-Cu-PcTs in strand exchange buffer (2 mM ATP-γ-S(Sigma-Aldrich), 10 mM MgAc2, 100 mM KAc, 50 mM Hepes-Tris buffer at pH 7.6, 0.1% v/v 2-mercaptoethanol) for 10 minutes at 37° C. FAM43 (0.35 μM) was added and the reaction was incubated for 2 minutes. The reaction was started by the addition of 0.35 μM of the dsDNA substrate (annealing product of equimolar oligonucleotides 45A and 55A). The reaction was stopped at 30 minutes by adding EDTA to a final concentration of 20 mM and trypsin to a final concentration of 1 μg/μl. After 10 minutes, 10 μl of the reaction was mixed with 5 μl of loading buffer (30% glycerol and 0.1% bromophenol blue) and products were resolved using a 20% native acrylamide gel. The fluorescence emission in the gel was recorded using a Kodak GelLogic 200 system.

[6] = molecular target: EcRecA / EcLexA (Escherichia coli, UniProt P0A7G6); conditions: in presence of ATPγS
Description: The LexA cleavage reaction (10 μl) contained 1 μM poly-(dT)45, 2 μM EcRecA, 10 μM EcLexA, 0.1 mM ATP-γ-S, 20 mM MgAc2, 50 mM Hepes-Tris at pH 7.6 and indicated concentrations of 4,4-Fe-PcTs or 3,4-Cu-PcTs. The reaction was incubated for 120 minutes at 21° C. and stopped by the addition of 5 μl of loading buffer (30% glycerol, 10% SDS, 0.2 M Tris-HCl at pH 6.8, 0.1% v/v 2-mercaptoethanol and 0.1% w/v bromophenol blue). The products were resolved using a 13% SDS-polyacrylamide gel. The proteins were stained with Coomassie Blue-R250.

[7] = molecular target: T2, RecA (Escherichia coli, UniProt P0A7G6)
Description: RecA (5 μM) and 3,4-Cu-PcTs (50 μM) were incubated in 0.15 M NaCl and 0.05 M Tris-HCl buffer at pH 7.4. The protein complexes were resolved by loading 2 ml of RecA/3,4-Cu-PcTs on a Pharmacia sephacryl S-300 column pre-equilibrated with the running buffer. The size exclusion column was calibrated with standard proteins with molecular weights of 35, 67, and 167 KD. Elution of proteins off the size exclusion column was monitored using absorbance at 280 nm.
Target sequence in this assay (P0A7G6 whole entry): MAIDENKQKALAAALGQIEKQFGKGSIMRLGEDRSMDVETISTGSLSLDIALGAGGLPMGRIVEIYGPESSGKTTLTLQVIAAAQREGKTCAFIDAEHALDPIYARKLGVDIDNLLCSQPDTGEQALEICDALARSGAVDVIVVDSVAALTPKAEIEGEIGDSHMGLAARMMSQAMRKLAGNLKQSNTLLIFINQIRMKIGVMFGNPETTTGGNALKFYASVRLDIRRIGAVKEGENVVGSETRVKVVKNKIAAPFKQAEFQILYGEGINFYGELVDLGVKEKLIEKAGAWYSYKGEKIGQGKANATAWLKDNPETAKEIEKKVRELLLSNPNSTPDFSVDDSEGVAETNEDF

[8] = molecular target: T1, EcRecA; conditions: compound 10 μM; poly-(dT)36-stimulated; relative to reaction without inhibitor
Description: An ATPase assay [18] was used to screen a set of commercially available anionic, aromatic molecules for inhibitors of RecA ATPase activity. The release of inorganic phosphate by ATP hydrolysis was monitored using a Malachite Green phosphate assay [18]. The ssDNA-dependent ATPase reaction contained 1 μM EcRecA, 6 μM ssDNA (poly-(dT)36, concentration in nucleotides), 5 mM ATP, 50 mM Tris-Hepes buffer at pH 7.4, 10 mM MgCl2, 0.1% v/v 2-mercaptoethanol, and indicated amounts of 4,4-Fe-PcTs or 3,4-Cu-PcTs. Phosphate levels were measured by transferring 25 μl of ATPase reaction to 475 μl of malachite green phosphate assay, which contained 0.033% w/v Malachite Green, 1.3% w/v ammonium molybdate. 1.0 M HCl was used to monitor the release of inorganic phosphate by ATP hydrolysis [18]. The green complex formed between Malachite Green, molybdate, and free orthophosphate was measured by recording the absorbance at 620 nm.
Results are the average of two independent experiments where the deviation was less than 10%.

[9] = molecular target: T1, EcRecA; conditions: gel shift; 0, 10, 100 μM; remark: listed apart in the source
[10] = molecular target: T2, RecA; conditions: 3,4-Cu-PcTs 3.75 μM; RecA 3.5 μM; AMPPNP
Target sequence in this assay (P0A7G6 2-353): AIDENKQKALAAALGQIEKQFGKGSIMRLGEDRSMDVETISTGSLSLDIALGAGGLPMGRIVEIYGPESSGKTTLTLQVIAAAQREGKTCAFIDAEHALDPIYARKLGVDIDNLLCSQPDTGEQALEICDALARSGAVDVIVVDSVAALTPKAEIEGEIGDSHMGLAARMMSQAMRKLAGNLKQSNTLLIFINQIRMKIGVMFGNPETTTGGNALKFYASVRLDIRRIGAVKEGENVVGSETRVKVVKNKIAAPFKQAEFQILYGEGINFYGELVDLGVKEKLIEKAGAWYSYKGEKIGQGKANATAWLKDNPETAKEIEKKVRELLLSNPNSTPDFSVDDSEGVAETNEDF
Description: RecA-dsDNA-AMPPNP complexes formed by incubating RecA (3.5 μM), calf thymus dsDNA (Sigma) at a 40 dsDNA:1 RecA ratio (w/w), AMP-PNP (adenosine 5′-(β,γ-imido)triphosphate) (Sigma) (1.3 mM), MgAc2 (Sigma) (2 mM), triethanolamine-HCl (Fisher) buffer (25 mM, pH 7.2) with or without 3,4-Cu-PcTs (3.75 μM) at 37° C. for 10 minutes. Samples were applied to carbon-coated grids and stained with 2% uranyl acetate (w/v). Images were recorded on film with a Tecnai 12 electron microscope operating at 80 keV with a nominal magnification of 30,000×. Negatives were scanned with a Nikon Coolscan 8000 densitometer at a raster of 4.2 Å/pixel.

[11] = molecular target: MvRadA (Methanococcus voltae, UniProt O73948); conditions: cited from earlier work
[12] = molecular target: T2, RecA; conditions: cited from earlier work
Target sequence in this assay (P0A7G6 2-353): as above

[13] = tested on: bacteria / ΔrecA bacterial strain; conditions: cited from earlier work
[14] = tested on: Pseudomonas aeruginosa ATCC27853; assay: Antibiotic sensitivity assay (CFUs/ml), P. aeruginosa; type: cell-based; conditions: ciprofloxacin 6.5 μM
Description: as §1
To confirm that the activity of 4,4-Fe-PcTs was not specific to the gram-negative ATCC25922 E. coli, the ability of 4,4-Fe-PcTs to potentiate the activity of ciprofloxacin in another gram-negative (Pseudomonas aeruginosa ATCC27853) strain and two gram-positive (Staphylococcus aureus ATCC29213 and Enterococcus faecalis ATCC29212) strains was evaluated.

[15] = tested on: ATCC25922 E. coli; assay: Ciprofloxacin resistance assay and reconstruction assay (in vitro mutagenesis); type: cell-based, Escherichia coli
Description: An in vitro mutagenesis assay [1] was used to measure the ability of 4,4-Fe-PcTs to block the acquisition of ciprofloxacin-induced resistance in ATCC25922 E. coli. ATCC25922 cells were plated on media containing ciprofloxacin in the presence or absence of 4,4-Fe-PcTs and cultured for 10 days. Colonies that appeared early in the assay (days 1 and 2) are believed to arise from pre-existing ciprofloxacin resistance mutations [1]. Colonies that appear later in the incubation (days 3 to 8) are due to ciprofloxacin resistance mutations acquired during exposure to ciprofloxacin or pre-existing mutations with a slow growth phenotype [1].
To distinguish between these two types of mutants, a reconstruction assay that tests for the time it takes for colonies to appear in the presence of ciprofloxacin was used. Colonies that appear at least two days faster than they appeared in the original ciprofloxacin mutagenesis screen were classified as colonies that acquire resistance after exposure to ciprofloxacin [1]. Colonies that appeared in the same number of days as in the ciprofloxacin resistance assay were classified as colonies with pre-existing mutations [1].
Twenty-five independent colonies of ATCC2592 were used to inoculate 25 LB broth cultures that were incubated at 37° C. for 25 hours. Viable cell counts in these cultures were determined by plating serial dilutions onto LB agar plates. One hundred microliters from each culture (˜10^8 cells) were plated in duplicate on LB agar containing ciprofloxacin (CFX) (40 nM) or ciprofloxacin (40 nM) and 4,4-Fe-PcTs (25 μM) (CFX+4,4-Fe-PcTs). Three additional 100 μL aliquots from three cultures were also plated on the same media to determine the number of viable cells per day. At 24 hour intervals, visible colonies were counted, removed from the plate, and stored at −80° C. for later use in the reconstruction assay and sequencing. Every 24 hours, in parallel with the resistance assay, small plugs of agar between visible colonies were excised from resistance assay plates. Agar plugs were homogenized in M9 buffer. Dilutions were plated in duplicate on LB plates to determine the total number of viable cells per day. The cells were also plated on LB containing CFX (40 nM) to determine if any CFX-resistant colonies remained after excision [1].
Reconstruction assays were used to determine whether ciprofloxacin resistant colonies were due to post-exposure mutation or due to mutation prior to ciprofloxacin exposure. Ciprofloxacin resistant clones isolated from the resistance assay were grown to saturation in LB media in 96 well plates. Cultures were then replica-plated in duplicate using a 96-pin replicator on LB plates to confirm viability and LB plates containing ciprofloxacin (40 nM) to confirm ciprofloxacin resistance. Ciprofloxacin-resistant clones that were isolated in the presence 4,4-Fe-PcTs were replica plated on LB and LB containing 4,4-Fe-PcTs (25 μM) and ciprofloxacin (40 nM). Clones that were resistant before ciprofloxacin exposure were defined as clones that formed colonies on the ciprofloxacin-containing media in the same number of days in the reconstruction assay as in the original resistance assay. Clones that mutated after exposure to ciprofloxacin were defined as clones that formed colonies earlier than in the original resistance assay [1].
The rate of ciprofloxacin resistance was defined as the number of ciprofloxacin-resistant mutants per viable cell that evolve as a function of time. […]

[16] = tested on: ATCC25922 cells; assay: Neutropenic murine bacterial thigh infection model; type: in vivo, Escherichia coli; conditions: mice treated only with ciprofloxacin 1 mg/kg s.c.; after 72 hours of infection
Description: Six-eight week-old, specific-pathogen-free, female CD-1 mice (weight, 25-35 g) were rendered neutropenic by intraperitoneal injection with 150 mg/kg cylcophosphamide (Sigma) four days before infection and 100 mg/kg cyclophosphamide 24 hours before infection. LB broth cultures inoculated from fresh ATCC25922 colonies and cells were grown to the log phase (OD600 of approximately 0.3) and diluted 1:1000 in LB broth. Thigh infections were produced by injecting 50 μl (approximately 10^6 CFUs) of diluted cultures into halothane-anesthetized mice. One group of mice was administrated inteperitoneal injection of 4,4-Fe-PcTs in conjunction with the second dose of cyclophosphamide (24 hours prior infection) (4,4-Fe-PcTs (pre)+CFX). Starting two hours after infection (defined as time zero), mice were administered subcutaneous injections of either 1 mg/kg ciprofloxacin alone (CFX) or co-treatment of 1 mg/kg ciprofloxacin with interperitoneal injection of 10 mg/kg 4,4-Fe-PcTs (4,4-Fe-PcTs+CFX and 4,4-Fe-PcTs (pre)+CFX) every 24 hours for 3 days. After 48 and 72 hours, three mice from each group were sacrificed, and their thighs removed and homogenized to determine the number of viable bacterial cells for both ciprofloxacin-sensitive and ciprofloxacin-resistant ATCC25922 cells. Serial dilutions of homogenates of the infected thigh were plated on LB agar (CFX Sensitive) and LB agar plates containing ciprofloxacin (40 nM) (CFX Resistant) to count viable cells for each of the three treatment groups.

T1 sequence (P0A7G6 whole entry): as the sequence (P0A7G6 whole entry) above
Sequence of DltA (Q81G39 whole entry): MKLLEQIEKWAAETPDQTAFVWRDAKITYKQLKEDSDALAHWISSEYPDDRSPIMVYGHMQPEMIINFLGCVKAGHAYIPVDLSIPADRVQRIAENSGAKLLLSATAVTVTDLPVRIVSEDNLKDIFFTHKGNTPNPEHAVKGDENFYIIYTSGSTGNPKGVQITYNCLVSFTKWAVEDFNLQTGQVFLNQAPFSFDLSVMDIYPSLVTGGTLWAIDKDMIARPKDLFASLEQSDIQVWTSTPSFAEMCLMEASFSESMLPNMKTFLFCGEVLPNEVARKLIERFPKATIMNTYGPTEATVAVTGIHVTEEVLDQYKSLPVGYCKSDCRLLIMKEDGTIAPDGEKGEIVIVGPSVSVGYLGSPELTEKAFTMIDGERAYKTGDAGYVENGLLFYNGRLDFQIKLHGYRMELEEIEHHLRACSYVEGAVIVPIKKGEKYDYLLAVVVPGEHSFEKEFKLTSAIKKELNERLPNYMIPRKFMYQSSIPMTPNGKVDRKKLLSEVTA
Sequence of EcRecA / EcLexA (P0A7G6 whole entry): as the sequence (P0A7G6 whole entry) above
Sequence of MvRadA (O73948 whole entry): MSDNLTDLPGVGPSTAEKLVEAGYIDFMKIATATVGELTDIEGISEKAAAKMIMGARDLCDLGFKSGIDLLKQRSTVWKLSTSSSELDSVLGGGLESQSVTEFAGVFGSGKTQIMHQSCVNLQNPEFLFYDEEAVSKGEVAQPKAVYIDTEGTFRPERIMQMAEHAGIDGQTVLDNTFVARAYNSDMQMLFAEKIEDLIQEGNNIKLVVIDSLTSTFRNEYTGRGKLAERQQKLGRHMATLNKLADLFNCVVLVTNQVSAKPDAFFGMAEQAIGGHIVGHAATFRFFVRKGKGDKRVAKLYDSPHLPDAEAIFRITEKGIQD

Compound: CN[C@@H]1[C@H](O)[C@H](NC)[C@H]2O[C@@]3(O)C(=O)C[C@@H](C)O[C@H]3O[C@@H]2[C@H]1O [spectinomycin, spectinomycin dihydrochloride]
- induction of SOS-GFP reporter by antibiotic alone [1]: only very low levels of GFP expression

Compound: copper phthalocyanine-3,4′,4″,4′″-tetrasulfonic acid tetrasodium salt [3,4-Cu-PcTs]
- specificity of ATPase inhibition (DltA control) [2]: specific for inhibiting RecA ATPase activity
- potentiation of ciprofloxacin activity ([3]; ciprofloxacin 40 nM): potentiated the activity of ciprofloxacin
- colony forming units (CFUs) ([3]; co-treated with ciprofloxacin 40 nM and compound at concentrations above 25 μM): no colony forming units (CFUs) were observed
- CFUs ([3]; compound 25 μM plus ciprofloxacin 40 nM, 24 hours): no CFUs were observed
- inhibition of RecA dsDNA-binding activity [4]: in the micromolar range
- inhibition of DNA strand-exchange [5]: inhibited
- inhibition of LexA cleavage [6]: inhibited
- effect on molecular weight (oligomeric state) of RecA complex ([7]; 3,4-Cu-PcTs 50 μM, RecA 5 μM): reduced the molecular weight of the RecA complex to a size consistent to the RecA ring-shaped hexamer storage complex
- elution size of 3,4-Cu-PcTs/RecA complex ([7]; pre-incubation with 3,4-Cu-PcTs 50 μM, RecA alone eluted near the void volume): ~200 KD
- inhibition of EcRecA ATPase activity [8]: high degree of inhibition
- inhibition of RecA ssDNA-binding activity [9]: in the micromolar range
- effect on RecA filament formation [10]: inhibited

Compound: O=C(N[C@H](CO)[C@H](O)c1ccc([N+](=O)[O-])cc1)C(Cl)Cl [chloramphenicol]
- induction of SOS-GFP reporter by antibiotic alone [1]: only very low levels of GFP expression

Compound: metatungstate (W12O40^6−)
- MvRadA ATPase, DNA-binding, and DNA strand-exchange activities [11]: inhibited
- inhibition of RecA activity within E. coli cells [12]: unable to inhibit

Compound: copper phthalocyanine-tetrasulfonic acid [Cu-PcTs]
- decrease in CFUs relative to ciprofloxacin treatment alone ([3]; 24 hours): ~100 fold

Compound: aluminum (III) phthalocyanine chloride tetrasulfonic acid [Al-PcTs]
- decrease in CFUs relative to ciprofloxacin treatment alone ([3]; 24 hours): ~100 fold

Compound: nickel (II) phthalocyanine-tetrasulfonic acid [Ni-PcTs]
- decrease in CFUs relative to ciprofloxacin treatment alone ([3]; 24 hours): ~100 fold

Compound: phthalocyanine tetrasulfonic acid [H-PcTs]
- decrease in CFUs relative to ciprofloxacin treatment alone ([3]; 24 hours): ~100 fold

Compound: CO[C@H]1/C=C/O[C@@]2(C)Oc3c(C)c(O)c4c(O)c(cc(O)c4c3C2=O)NC(=O)/C(C)=C\C=C\[C@H](C)[C@H](O)[C@@H](C)[C@@H](O)[C@@H](C)[C@H](OC(C)=O)[C@@H]1C [Rifamycin, rifamycin]
- SOS response and killing of bacteria ([13]; bacteria with RecA): activates the SOS response, but does not kill bacteria
- activity in ΔrecA bacterial strain ([13]; ΔrecA bacterial strain): shows bactericidal activity

Compound: O=C(O)c1cn(C2CC2)c2cc(N3CCNCC3)c(F)cc2c1=O [ciprofloxacin, ciprofloxacin hydrochloride, reference compound]
- sensitivity of ATCC27853 to ciprofloxacin compared with gram-positive strains [14]: less sensitive to ciprofloxacin than the two gram-positive strains
- ciprofloxacin-resistant cells over time ([15]; cells treated with only ciprofloxacin): spike in ciprofloxacin-resistant cells at day 5
- ciprofloxacin-resistant colonies caused by pre-existing mutations ([15]; ciprofloxacin-alone (40 nM)): 29%
- ciprofloxacin-resistant cells in thigh [16]: Approximately 50,000 cells

Compound: NC[C@H]1O[C@H](O[C@H]2[C@H](O)[C@@H](O[C@H]3O[C@H](CO)[C@@H](O)[C@H](N)[C@H]3O)[C@H](N)C[C@@H]2N)[C@H](O)[C@@H](O)[C@@H]1O [Kanamycin, kanamycin monosulfate]
- induction of SOS-GFP reporter by antibiotic alone [1]: did not induce the SOS-GFP reporter

Compound: zinc (II) phthalocyanine tetrasulfonic acid [Zn-PcTs]
- decrease in CFUs relative to ciprofloxacin treatment alone ([3]; 24 hours): ~100 fold
